{"source": "patent US7988958B2", "about": "“Enterococcus and Streptococcus strains and bacteriocins” (The United States of America as represented by the …, priority 2005, dated 2011)", "test_in_all_cases": "MIC of purified bacteriocins and antibiotic by Spot Test", "type_in_all_cases": "cell-based", "key": {"[1]": {"tested_on": "Staphylococcus aureus", "conditions": "S. aureus; 24 hours at 37° C., aerobic", "procedure": "(§1) The minimal inhibiting concentrations (MICs) of bacteriocins 760 and 50-52 and Methicillin were determined by Spot Test. Various concentrations of purified bacteriocins (μg/ml) in a volume of 10 μl was added to cultures of Staphylococcus aureus, Staphylococcus epidermidis, Pseudomonas aeruginosa, and Helicobacter pylori. The cultures were incubated for about 24 hours at about 37° C. under aerobic conditions for all but Helicobacter pylori which was incubated under microaerobic conditions."}, "[2]": {"tested_on": "Helicobacter pylori", "conditions": "H. pylori; 24 hours at 37° C., microaerobic", "procedure": "as §1"}, "[3]": {"tested_on": "Pseudomonas aeruginosa", "conditions": "P. aeruginosa; 24 hours at 37° C., aerobic", "procedure": "as §1"}, "[4]": {"tested_on": "Staphylococcus epidermidis", "conditions": "S. epidermidis; 24 hours at 37° C., aerobic", "procedure": "as §1"}}}
{"smiles": "COc1cccc(OC)c1C(=O)N[C@@H]1C(=O)N2[C@@H]1SC(C)(C)[C@@H]2C(=O)O", "note": "[Methicillin, reference compound]", "values": [{"measurement": "MIC of purified Bacteriocins and Antibiotic", "setting": "[1]", "result": 52.5, "unit": "µg/mL"}, {"measurement": "MIC of purified Bacteriocins and Antibiotic", "setting": "[2]", "result": 93.8, "unit": "µg/mL"}, {"measurement": "MIC of purified Bacteriocins and Antibiotic", "setting": "[3]", "result": 78.4, "unit": "µg/mL"}, {"measurement": "MIC of purified Bacteriocins and Antibiotic", "setting": "[4]", "result": 64.8, "unit": "µg/mL"}]}
